The test system of test [1] is ITK-SYK^+PD-1^− lymphoma cells. Description: In vitro survival of PD-1 deficient lymphoma cells under inhibitor treatment. The format is cell-based, mouse. As to conditions: FIGS. 10D-F. On the procedure: Cell culture. Unless otherwise indicated, murine cells were cultured in DMEM containing 20% FCS. The following compounds were used for the in vitro experiments: glycolysis inhibitor 2-deoxy-D-glucose (D8375, Sigma), mTOR inhibitor Torin-1 (S2827, Selleckchem), HIF1α inhibitor PX-478 2HCl (S7612, Selleckchem), ATP citrate lyase inhibitor BMS-303141 (4609, Tocris), fatty acid synthase inhibitor FT113 (S6666, Selleckchem), and BET-p300/CBP dual inhibitor NE02734 (S9648, Selleckchem). Inhibitors were dissolved in DMSO or water, and the cell culture medium was supplemented with the indicated concentrations of the compound or DMSO/water (as control).
To determine whether ACLY activity is required for PD-1-deficient lymphoma cell survival, Applicants next incubated transformed ITK-SYK^+PD-1− T cells from tamoxifen-injected ITK-SYK^CD4-creERT2; Pdcd1^−/− mice with an ACLY inhibitor. This treatment killed the ITK-SYK^+PD-1^− lymphoma cells (FIG. 11F, p=0.0037).

For test [2], the system named is AP-1 family transcription factors. Put plainly: ATAC-seq transcription factor footprint analysis after inhibitor incubation. As to conditions: BMS-303141 5 μM, 3 hours in vitro vs DMSO. It counts as cell-based, mouse. The procedure:
Preparation of mouse and human ATAC-seq libraries. Ex vivo: For mouse ATAC-seq, ITK-SYK^CD4-creERT2, or ITK-SYK^CD4-creERT2; Pdcd1^−/− mice received a single dose of 2 mg tamoxifen. Five days after injection, single-cell suspensions were generated from the spleens and 50,000 eGFP^+ FACS-sorted cells were used for the transposase reaction. For human ATAC-seq, 50,000 malignant cells from CTCL patients with and without PDCD1 mutation were sorted by FACS as described above. The transposase reaction was performed as previously described^81. […] The reaction was monitored after 4 cycles with qPCR using 5 μl PCR reaction mixture and the same primers in 15 μl total volume (KK4617, Roche). Cycles were added as calculated, then the amplified samples were purified, and size selected using SpeedBeads (GE65152105050250, Sigma) in 22% PEG. […]
ATAC-seq analysis. […] Next, reads were aligned to the mm9 genome using Bowtie2 (v2.4.0)^71. […] To filter properly mapped reads, Applicants used Samtools with the following options: exclude multi-mapped reads (MAPQ<30) and reads with flag 1796 or 1804. Next, Samtools with option “-f 2” was used to filter properly paired reads. […] Next, Applicants filtered for nucleosome-free reads (0-100 bp) as previously described^44. […]

The structures appear in SMILES notation.

`O=CC[C@@H](O)[C@H](O)[C@H](O)CO` [2-DG, 2-deoxy-D-glucose]: the “toxicity to PD-1 deficient lymphoma cells” value in test [1] is “toxic”.
On to `COc1ccc(-c2ccccc2)cc1NS(=O)(=O)c1cc(Cl)cc(Cl)c1O` [BMS-303141], for which the “AP-1 footprints in Pdcd1 deleted cells in comparison to cells with intact PD-1 pathway” value in test [2] is “de-enriched”.
